According to PubChem BioAssay (NCI):
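Cells were grown in 96-well plates and exposed to each compound for 48 hours at five concentrations; endpoints were interpolated linearly between bracketing concentrations, or set to the highest concentration if not reached. TGI denotes the concentration required for complete inhibition of growth.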

Legend:
Assay in all cases: NCI-60 cell line screen, 48 h
[1] = test system: SF-268 CNS
[2] = test system: MOLT-4 leukemia
[3] = test system: SK-MEL-2 melanoma
[4] = test system: MDA-MB-435
[5] = test system: A498 renal
[6] = test system: SNB-75 CNS
[7] = test system: NCI/ADR-RES ovarian
[8] = test system: A549 NSCLC
[9] = test system: U251 CNS
[10] = test system: OVCAR-4 ovarian
[11] = test system: UACC-257 melanoma
[12] = test system: OVCAR-3 ovarian
[13] = test system: RPMI-8226 leukemia
[14] = test system: LOX IMVI melanoma
[15] = test system: HT29 colon
[16] = test system: MDA-MB-231 breast
[17] = test system: KM12 colon
[18] = test system: ACHN renal
[19] = test system: CAKI-1 renal
[20] = test system: SR leukemia
[21] = test system: SNB-19 CNS
[22] = test system: TK-10 renal
[23] = test system: PC-3 prostate
[24] = test system: SN12C renal
[25] = test system: RXF 393 renal
[26] = test system: 786-0 renal
[27] = test system: EKVX NSCLC
[28] = test system: M14 melanoma
[29] = test system: OVCAR-8 ovarian
[30] = test system: SK-OV-3 ovarian
[31] = test system: MDA-N
[32] = test system: T-47D breast
[33] = test system: CCRF-CEM leukemia
[34] = test system: OVCAR-5 ovarian
[35] = test system: HL-60(TB) leukemia
[36] = test system: HS 578T breast
[37] = test system: HOP-92 NSCLC
[38] = test system: NCI-H23 lung
[39] = test system: IGROV1 ovarian
[40] = test system: BT-549 breast
[41] = test system: SF-295 CNS
[42] = test system: HCT-116 colon
[43] = test system: K-562 leukemia
[44] = test system: UACC-62 melanoma
[45] = test system: NCI-H522 lung
[46] = test system: SK-MEL-5 melanoma
[47] = test system: SW-620 colon
[48] = test system: NCI-H460 lung
[49] = test system: COLO 205 colon
[50] = test system: HOP-62 NSCLC
[51] = test system: HCC-2998 colon
[52] = test system: DU-145 prostate
[53] = test system: NCI-H226 lung
[54] = test system: HCT-15 colon
[55] = test system: UO-31 renal
[56] = test system: SK-MEL-28 melanoma
[57] = test system: MALME-3M melanoma
[58] = test system: SF-539 CNS
[59] = test system: MCF7 breast

For `O=C1OC(=O)C2=C1C(c1cccs1)C=C(c1cccnc1)N2c1ccncc1` (stereo not drawn), the TGI [1] was 48.2 µM, the TGI [2] was 73.8 µM and the TGI [3] was 32.5 µM. For the same compound, the TGI [4] was 49.9 µM, the TGI [5] was 51.5 µM and the TGI [6] was 35.8 µM. It also gave a TGI [7] of 82.3 µM, a TGI [8] of 40.8 µM and a TGI [9] of 35.4 µM. It also gave a TGI [10] of 36 µM, a TGI [11] of 24.7 µM and a TGI [12] of 29.3 µM. The TGI [13] was 60.2 µM, the TGI [14] was 27 µM and the TGI [15] was 30.4 µM. It also gave a TGI [16] of 39.6 µM, a TGI [17] of 26.1 µM and a TGI [18] of 30.1 µM. It also gave a TGI [19] of 29.7 µM, a TGI [20] of 8.73 µM and a TGI [21] of 38.9 µM. For the same compound, the TGI [22] was 31.6 µM, the TGI [23] was 29.5 µM and the TGI [24] was 32.9 µM. It also gave a TGI [25] of 34.5 µM, a TGI [26] of 32.9 µM and a TGI [27] of 31.4 µM. For the same compound, the TGI [28] was 27 µM, the TGI [29] was 48.7 µM and the TGI [30] was 68.5 µM. The TGI [31] was 33.9 µM, the TGI [32] was 37 µM and the TGI [33] was 50 µM. The TGI [34] was 28.5 µM, the TGI [35] was 64.4 µM and the TGI [36] was 71.4 µM. For the same compound, the TGI [37] was 27.1 µM, the TGI [38] was 34.7 µM and the TGI [39] was 29.3 µM. The TGI [40] was 36.1 µM, the TGI [41] was 35.3 µM and the TGI [42] was 27.3 µM. It also gave a TGI [43] of 84.6 µM, a TGI [44] of 37.3 µM and a TGI [45] of 29.4 µM. For the same compound, the TGI [46] was 40.2 µM, the TGI [47] was 58.1 µM and the TGI [48] was 32.1 µM. It also gave a TGI [49] of 31.8 µM, a TGI [50] of 41.7 µM and a TGI [51] of 27.1 µM. It also gave a TGI [52] of 30.2 µM, a TGI [53] of 56.8 µM and a TGI [54] of 30.1 µM. For the same compound, the TGI [55] was 30.3 µM and the TGI [56] was 75.2 µM.
Compound `CN(C)CCNC(=O)c1cc([N+](=O)[O-])cn1C` has a TGI [1] of over 100 µM, a TGI [2] of over 100 µM and a TGI [3] of over 100 µM. It also gave a TGI [4] of over 100 µM, a TGI [5] of over 100 µM and a TGI [6] of over 100 µM. For the same compound, the TGI [8] was over 100 µM, the TGI [9] was over 100 µM and the TGI [10] was over 100 µM. For the same compound, the TGI [11] was over 100 µM, the TGI [12] was over 100 µM and the TGI [13] was over 100 µM. It also gave a TGI [14] of over 100 µM, a TGI [15] of over 100 µM and a TGI [16] of over 100 µM. The TGI [57] was over 100 µM, the TGI [17] was over 100 µM and the TGI [18] was over 100 µM. For the same compound, the TGI [19] was over 100 µM, the TGI [20] was over 100 µM and the TGI [21] was over 100 µM. It also gave a TGI [22] of over 100 µM, a TGI [23] of over 100 µM and a TGI [24] of over 100 µM. For the same compound, the TGI [25] was over 100 µM, the TGI [26] was over 100 µM and the TGI [27] was over 100 µM. The TGI [28] was over 100 µM, the TGI [29] was over 100 µM and the TGI [30] was over 100 µM. For the same compound, the TGI [31] was over 100 µM, the TGI [58] was over 100 µM and the TGI [32] was over 100 µM. It also gave a TGI [33] of over 100 µM, a TGI [34] of over 100 µM and a TGI [35] of over 100 µM. The TGI [36] was over 100 µM, the TGI [38] was over 100 µM and the TGI [39] was over 100 µM. It also gave a TGI [40] of over 100 µM, a TGI [41] of over 100 µM and a TGI [42] of over 100 µM. It also gave a TGI [43] of over 100 µM, a TGI [44] of over 100 µM and a TGI [45] of over 100 µM. The TGI [46] was over 100 µM, the TGI [47] was over 100 µM and the TGI [48] was over 100 µM. For the same compound, the TGI [49] was over 100 µM, the TGI [50] was over 100 µM and the TGI [51] was over 100 µM. The TGI [52] was over 100 µM, the TGI [53] was over 100 µM and the TGI [54] was over 100 µM. For the same compound, the TGI [59] was over 100 µM, the TGI [55] was over 100 µM and the TGI [56] was over 100 µM.
